Among the test systems are 786-0 renal; MCF7 breast; NCI-H460 lung; OVCAR-8 ovarian; MDA-MB-435; RXF 393 renal; NCI-H23 lung; K-562 leukemia; UACC-257 melanoma; MALME-3M melanoma.
Experiment in all cases: DTP human tumour cell line panel, 48 h

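Cultured in 96-well plates, cells were exposed to test compound for 48 hours across five concentrations. GI50 marks 50% less growth. Definition used: TGI = concentration required for complete inhibition of growth.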 A value given as a limit tells only on which side of the number the result lay.

Consider `C=C(CN1C(=O)CN(C)C1=O)c1ccc(C(=O)Nc2ccccc2N)cc1`, for which the GI50 (usually the concentration that inhibits growth by half) is 30.1 µM with 786-0 renal; 12.7 µM with MCF7 breast; 15.9 µM in the assay on NCI-H460 lung; 6.78 µM in the assay with OVCAR-8 ovarian; 11.3 µM in the assay on MDA-MB-435; 20.1 µM in the assay on RXF 393 renal. Besides, the GI50 in the assay with NCI-H23 lung was 26.8 µM; in the assay on K-562 leukemia, 5.9 µM; in the assay with UACC-257 melanoma it was 5.89 µM. Further, the TGI – broadly, the concentration at which net growth stops – was greater than 100 µM in the assay on 786-0 renal; greater than 100 µM in the assay with MCF7 breast; greater than 100 µM with NCI-H460 lung; greater than 100 µM with OVCAR-8 ovarian; 54.1 µM in the assay on MDA-MB-435; 67.2 µM in the assay on RXF 393 renal. In addition, the figures for the total growth inhibition concentration (TGI) with NCI-H23 lung, in the assay on K-562 leukemia and with UACC-257 melanoma were greater than 100 µM, 74.5 µM and 30.4 µM, respectively.

On to `C=CCOc1cc(NC(=S)c2ccoc2C)ccc1OC`, for which the TGI in the assay on 786-0 renal, in the assay on MCF7 breast, in the assay on NCI-H460 lung, in the assay with OVCAR-8 ovarian, in the assay on MDA-MB-435 and with MALME-3M melanoma was greater than 100 µM in each case. Moreover, the TGI in the assay on NCI-H23 lung, in the assay on K-562 leukemia and in the assay on UACC-257 melanoma was greater than 100 µM each time.

Consider `CCN(Cc1cc(Nc2nc(C)cn3c(-c4cn[nH]c4)cnc23)sn1)C(C)(C)CO`, for which the GI50 is 0.0473 µM in the assay with 786-0 renal; 0.026 µM in the assay on MCF7 breast; 0.044 µM in the assay on NCI-H460 lung; 0.0411 µM with OVCAR-8 ovarian; 0.0826 µM in the assay on MDA-MB-435; 0.648 µM in the assay on MALME-3M melanoma. The GI50 in the assay on RXF 393 renal is less than 0.012 µM; in the assay with NCI-H23 lung, 0.191 µM; with UACC-257 melanoma, 0.622 µM. The TGI in the assay on 786-0 renal came out at 2.73 µM; with MCF7 breast, 2.01 µM; in the assay with NCI-H460 lung, 4.59 µM; in the assay on OVCAR-8 ovarian, 11 µM; with MDA-MB-435, 1.31 µM; in the assay with MALME-3M melanoma, 16.2 µM. Moreover, the TGI was determined as 0.0907 µM in the assay on RXF 393 renal, 7.09 µM in the assay with NCI-H23 lung and 9.93 µM in the assay with UACC-257 melanoma.

Consider `COc1cc(/C=C\c2cc(OC)c(OC)c(OC)c2)cc(NC(=O)/C=C/c2cc(OC)c(OC)c(OC)c2)c1OC`, for which the GI50 is 6.22 µM in the assay on 786-0 renal; 3.49 µM in the assay on MCF7 breast; 5.39 µM in the assay with NCI-H460 lung; 6.68 µM in the assay on OVCAR-8 ovarian; 1.54 µM in the assay on MDA-MB-435; 3.34 µM in the assay on MALME-3M melanoma. In addition, the GI50 in the assay on RXF 393 renal was 4.77 µM; in the assay on NCI-H23 lung, 5.27 µM; in the assay with UACC-257 melanoma, 10.1 µM. Moreover, the concentration for total growth inhibition (TGI) in the assay with 786-0 renal is greater than 100 µM; in the assay with MCF7 breast it was greater than 100 µM; in the assay with NCI-H460 lung, greater than 100 µM; with OVCAR-8 ovarian, greater than 100 µM; in the assay with MDA-MB-435, 4.84 µM; in the assay on MALME-3M melanoma, greater than 100 µM. The TGI with RXF 393 renal, with NCI-H23 lung and with UACC-257 melanoma was greater than 100 µM throughout.

Take `COC(=O)C1CC23CCCN4CCC5(c6ccccc6N(C=O)C15CC2)C43` (centres undefined): the total growth inhibition concentration (TGI) in the assay with 786-0 renal, in the assay with MCF7 breast, with NCI-H460 lung, in the assay with OVCAR-8 ovarian, in the assay with MDA-MB-435 and in the assay on MALME-3M melanoma was greater than 100 µM each time. In addition, the TGI with RXF 393 renal, with NCI-H23 lung and in the assay on UACC-257 melanoma was greater than 100 µM each time.

Turning to `CN1CCC2(CC1)ONC1=NCCN12`, the GI50 is 15.4 µM in the assay on 786-0 renal; 23 µM in the assay with MCF7 breast; 37.2 µM in the assay on NCI-H460 lung; 80.6 µM in the assay with MDA-MB-435; 20.1 µM in the assay with MALME-3M melanoma; 34.5 µM in the assay with NCI-H23 lung. Further, the values for the GI50 in the assay on K-562 leukemia and in the assay with UACC-257 melanoma were 37.7 µM and greater than 100 µM, respectively. The TGI was 53.8 µM in the assay with 786-0 renal; 87.1 µM in the assay with MCF7 breast; greater than 100 µM in the assay with NCI-H460 lung; 12.9 µM in the assay on OVCAR-8 ovarian; greater than 100 µM with MDA-MB-435; 73.7 µM in the assay on MALME-3M melanoma. The total growth inhibition concentration (TGI) in the assay with NCI-H23 lung, in the assay with K-562 leukemia and with UACC-257 melanoma was greater than 100 µM in each case.

For the molecule `N=C1C(c2nc3ccccc3s2)=C(O)CN1c1ccc(F)c(Cl)c1`, the GI50 in the assay with 786-0 renal is 22.7 µM; with MCF7 breast, 40.3 µM; with NCI-H460 lung, 17.5 µM; in the assay with OVCAR-8 ovarian it was 12.6 µM; with MDA-MB-435, 61.9 µM; in the assay on RXF 393 renal, 7.38 µM. For the same molecule, the GI50 with NCI-H23 lung was 34.8 µM; in the assay with K-562 leukemia it was 31.1 µM; in the assay with UACC-257 melanoma, 22.9 µM. Also, the concentration for total growth inhibition (TGI) in the assay with 786-0 renal was 57.1 µM; in the assay with MCF7 breast it was greater than 100 µM; in the assay with NCI-H460 lung, greater than 100 µM; in the assay with OVCAR-8 ovarian, 33.4 µM; with MDA-MB-435, greater than 100 µM; with RXF 393 renal it was 33.9 µM. The TGI in the assay on NCI-H23 lung, with K-562 leukemia and in the assay with UACC-257 melanoma was greater than 100 µM throughout.

As for `N#Cc1ccc(OCc2nc(N)nc(N)c2-c2ccc(Cl)c(Cl)c2)cc1`, the GI50 is 1.48 µM in the assay on 786-0 renal; 2.51 µM with MCF7 breast; 0.377 µM in the assay with NCI-H460 lung; 0.621 µM with OVCAR-8 ovarian; 0.629 µM with MDA-MB-435; 23.5 µM in the assay with MALME-3M melanoma. Also, the GI50 in the assay on RXF 393 renal was 0.597 µM; in the assay on K-562 leukemia, 0.359 µM; in the assay on UACC-257 melanoma, 0.593 µM. For the same molecule, the total growth inhibition concentration (TGI) in the assay on 786-0 renal is greater than 100 µM; with MCF7 breast, 34.5 µM; in the assay with NCI-H460 lung, 14.1 µM; in the assay with OVCAR-8 ovarian, 54.5 µM; with MDA-MB-435, greater than 100 µM; in the assay with MALME-3M melanoma, 84.8 µM. Besides, the TGI is 30 µM in the assay on RXF 393 renal, greater than 100 µM in the assay with K-562 leukemia and 37.2 µM in the assay with UACC-257 melanoma.

Take `O=C(c1ccccc1)c1ccccc1-c1ccccc1`: the GI50 in the assay with 786-0 renal was 10.6 µM; in the assay on MCF7 breast it was 2.97 µM; with NCI-H460 lung, 3.35 µM; in the assay with OVCAR-8 ovarian, 4.77 µM; in the assay with MDA-MB-435, 0.325 µM; in the assay with MALME-3M melanoma, 8.79 µM. Besides, the GI50 was 3.17 µM in the assay on RXF 393 renal, 4.46 µM in the assay on NCI-H23 lung and 14.5 µM in the assay with UACC-257 melanoma. The TGI with 786-0 renal is 90.7 µM; in the assay with MCF7 breast it was greater than 100 µM; with NCI-H460 lung, 18.2 µM; with OVCAR-8 ovarian it was 52.4 µM; in the assay with MDA-MB-435, 7.87 µM; in the assay with MALME-3M melanoma it was 65.7 µM. Also, the TGI was 22.7 µM in the assay on RXF 393 renal, greater than 100 µM in the assay with NCI-H23 lung and greater than 100 µM in the assay with UACC-257 melanoma.

As to `Clc1nc(Cl)c2ncn(CC3(Cn4cnc5c(Cl)nc(Cl)nc54)COC3)c2n1`, the GI50 in the assay with 786-0 renal is 0.762 µM; in the assay on MCF7 breast, 0.188 µM; with NCI-H460 lung, 0.222 µM; with OVCAR-8 ovarian, 0.256 µM; in the assay with MDA-MB-435 it was 0.234 µM; in the assay on MALME-3M melanoma, 0.187 µM. Also, the GI50 was 0.196 µM in the assay with RXF 393 renal, 0.194 µM in the assay on NCI-H23 lung and 0.197 µM in the assay with UACC-257 melanoma. In addition, the TGI in the assay with 786-0 renal amounted to 2.37 µM; in the assay on MCF7 breast it was 0.428 µM; with NCI-H460 lung it was 0.447 µM; with OVCAR-8 ovarian, 0.532 µM; in the assay on MDA-MB-435, 0.613 µM; in the assay with MALME-3M melanoma, 0.433 µM. The TGI in the assay with RXF 393 renal was found to be 0.405 µM; in the assay on NCI-H23 lung, 0.392 µM; with UACC-257 melanoma it was 0.427 µM.

Regarding `CCOC(=O)c1c(C)nc2c(c1N)CC(=O)N2Cc1ccc(OC)cc1`, the GI50 is 3.45 µM in the assay with 786-0 renal; greater than 100 µM in the assay on MCF7 breast; 5.42 µM in the assay with OVCAR-8 ovarian; greater than 100 µM with MDA-MB-435; greater than 100 µM with MALME-3M melanoma; 4.26 µM with NCI-H23 lung. In addition, in the assay with K-562 leukemia, the GI50 is greater than 100 µM. The TGI with 786-0 renal was 27.8 µM; in the assay on MCF7 breast it was greater than 100 µM; with OVCAR-8 ovarian, greater than 100 µM; in the assay on MDA-MB-435, greater than 100 µM; in the assay on MALME-3M melanoma, greater than 100 µM; in the assay on NCI-H23 lung, greater than 100 µM. This molecule came in with a TGI with K-562 leukemia greater than 100 µM.

With `COC12C=C/C(=C(/C(=O)OCc3cncnc3)C(=O)CCCCCCCCC3(OC)C=C/C(=C(/C(=O)OCc4cncnc4)C(=O)CCCCCCCC1)O3)O2`, the GI50 with 786-0 renal was 0.433 µM; in the assay with MCF7 breast, 0.209 µM; in the assay on NCI-H460 lung, 0.71 µM; in the assay on OVCAR-8 ovarian it was 0.207 µM; in the assay on MDA-MB-435, 0.099 µM; in the assay with RXF 393 renal it was 0.199 µM. In addition, the GI50 is 0.186 µM in the assay on NCI-H23 lung, 0.188 µM with K-562 leukemia and 0.937 µM in the assay with UACC-257 melanoma. The TGI in the assay on 786-0 renal was 1.47 µM; with MCF7 breast, 2.32 µM; with NCI-H460 lung, 1.91 µM; in the assay on OVCAR-8 ovarian, greater than 50 µM; with MDA-MB-435, 0.208 µM; with RXF 393 renal it was 0.714 µM. Moreover, the total growth inhibition concentration (TGI) came to 0.839 µM in the assay on NCI-H23 lung, 1.14 µM in the assay on K-562 leukemia and 2.94 µM with UACC-257 melanoma.

Take `Cc1cccc(/C=C/c2c(C(=O)/C=C/c3ccccc3)c(C)nc3ccccc23)c1`: the GI50 in the assay on 786-0 renal was 1.62 µM; in the assay with MCF7 breast, 0.565 µM; with NCI-H460 lung, 1.3 µM; in the assay on MDA-MB-435 it was 1.81 µM; in the assay with MALME-3M melanoma, 1.79 µM; in the assay on RXF 393 renal, 1.51 µM. Moreover, the GI50 with NCI-H23 lung is 1.58 µM; in the assay with UACC-257 melanoma, 1.65 µM. Also, the TGI in the assay with 786-0 renal worked out at 3.11 µM; in the assay on MCF7 breast, 4.22 µM; in the assay with NCI-H460 lung, 2.94 µM; in the assay on MDA-MB-435, 4.29 µM; with MALME-3M melanoma, 3.2 µM; in the assay with RXF 393 renal, 2.86 µM. The values for the TGI in the assay with NCI-H23 lung and with UACC-257 melanoma were 3.57 µM and 3.28 µM, respectively.

For the origin of these results see PubChem BioAssay (NCI).
